Laboratory results: BindingDB's records for doi:10.1016/j.bmcl.2009.04.040 (The University of Texas Southwestern Medical Center At …, 2009)
pEC50: −log10 of the molar value.

Target: Proto-oncogene Wnt-3 (Homo sapiens, UniProt P56703)
Assay: Inhibition of Wnt3 expressed in mouse L-cells assessed as inhibition of Wnt/catanin signaling pathway by luciferase reporter gene assay

Sequence of Proto-oncogene Wnt-3 (P56703 whole entry): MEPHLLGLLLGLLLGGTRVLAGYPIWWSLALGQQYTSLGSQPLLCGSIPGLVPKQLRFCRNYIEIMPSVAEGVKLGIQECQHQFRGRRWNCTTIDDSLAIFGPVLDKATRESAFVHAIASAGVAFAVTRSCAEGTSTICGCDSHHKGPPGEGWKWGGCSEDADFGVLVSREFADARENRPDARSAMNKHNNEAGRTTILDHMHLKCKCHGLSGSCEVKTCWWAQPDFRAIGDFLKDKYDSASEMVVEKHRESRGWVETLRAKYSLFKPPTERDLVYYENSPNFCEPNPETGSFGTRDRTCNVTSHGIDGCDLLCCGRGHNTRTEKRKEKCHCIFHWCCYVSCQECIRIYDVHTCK

Row | Compound | pEC50
1 | Cc1ccnc2c(NC(=O)[C@H]3CC[C@H](CN4C(=O)[C@@H]5[C@H](C4=O)[C@@H]4C=C[C@H]5C4)CC3)cccc12 [4-((1R,2S,6R,7S)-3,5-Dioxo-4-aza-tricyclo[5.2.1.0*2,6*]dec-8-en-4-ylmethyl)-cyclohexanecarboxylic acid(4-methyl-quinolin-8-yl)-amide] | < 4.60
2 | O=C1[C@@H]2[C@H](C(=O)N1C[C@H]1CC[C@H](C(=O)Nc3cccc4cccnc34)CC1)[C@@H]1C=C[C@H]2C1 [4-((1R,2S,6R,7S)-3,5-Dioxo-4-aza-tricyclo[5.2.1.0*2,6*]dec-8-en-4-ylmethyl)-cyclohexanecarboxylic acid quinolin-8-ylamide] | < 4.60
3 | COc1cc(C(=O)Nc2cccc3cccnc23)ccc1-n1c(O)c2c(c1O)[C@H]1C=C[C@@H]2C1 [4-((1R,2S,6R,7S)-3,5-Dioxo-4-aza-tricyclo[5.2.1.0*2,6*]dec-8-en-4-yl)-3-methoxy-N-quinolin-8-yl-benzamide] | < 4.60
4 | O=C(Nc1ccc(F)cc1F)c1ccc(-n2c(O)c3c(c2O)[C@H]2C=C[C@@H]3C2)cc1 [N-(2,4-Difluoro-phenyl)-4-((1R,2S,6R,7S)-dioxo-4-aza-tricyclo[5.2.1.0*2,6*]dec-8-en-4-yl)-benzamide] | 5.05
5 | O=C(Nc1ccc(-n2c(O)c3c(c2O)[C@H]2C=C[C@@H]3C2)cc1)Nc1cccc2cccnc12 [1-[4-((1R,2S,6R,7S)-3,5-Dioxo-4-aza-tricyclo[5.2.1.0*2,6*]dec-8-en-4-yl)-phenyl]-3-quinolin-8-yl-urea] | < 4.60
6 | COc1cc(-n2c(O)c3c(c2O)[C@H]2C=C[C@@H]3C2)ccc1C(=O)Nc1cccc2cccnc12 [4-((1R,2S,6R,7S)-3,5-Dioxo-4-aza-tricyclo[5.2.1.0*2,6*]dec-8-en-4-yl)-2-methoxy-N-quinolin-8-yl-benzamide] | < 4.60
7 | O=C(Nc1ccc(C(F)(F)F)cc1)c1ccc(-n2c(O)c3c(c2O)[C@H]2C=C[C@@H]3C2)cc1 [4-((1R,2S,6R,7S)-3,5-Dioxo-4-aza-tricyclo[5.2.1.0*2,6*]dec-8-en-4-yl)-N-(4-trifluoromethyl-phenyl)-benzamide] | < 4.60
8 | O=C(Nc1cccc(C(F)(F)F)c1)c1ccc(-n2c(O)c3c(c2O)[C@H]2C=C[C@@H]3C2)cc1 [4-((1R,2S,6R,7S)-3,5-Dioxo-4-aza-tricyclo[5.2.1.0*2,6*]dec-8-en-4-yl)--(3-trifluoromethyl-phenyl)-benzamide] | 4.70

The next molecules have a higher pEC50 than those just listed; values first:

Row | pEC50 | Compound
9 | 5.52 | O=C(Nc1ccc(Cl)cc1)c1ccc(-n2c(O)c3c(c2O)[C@H]2C=C[C@@H]3C2)cc1 [N-(4-Chloro-phenyl)-4-((1R,2S,6R,7S)-3,5-dioxo-4-aza-tricyclo[5.2.1.0*2,6*]dec-8-en-4-yl)-benzamide]
10 | 5.52 | O=C(Nc1ccc(F)c(F)c1)c1ccc(-n2c(O)c3c(c2O)[C@H]2C=C[C@@H]3C2)cc1 [N-(3,4-Difluoro-phenyl)-4-((1R,2S,6R,7S)-dioxo-4-aza-tricyclo[5.2.1.0*2,6*]dec-8-en-4-yl)-benzamide]
11 | 6.00 | O=C(Nc1cccc2cccnc12)c1ccc(-n2c(O)c3c(c2O)[C@H]2C=C[C@@H]3C2)cc1Cl [2-Chloro-4-((1R,2S,6R,7S)-3,5-dioxo-4-aza-tricyclo[5.2.1.0*2,6*]dec-8-en-4-yl)-N-quinolin-8-yl-benzamide]
12 | 6.40 | O=C1[C@@H]2[C@H](C(=O)N1[C@H]1CC[C@H](C(=O)Nc3cccc4cccnc34)CC1)[C@@H]1C=C[C@H]2C1 [4-((1R,2S,6R,7S)-3,5-Dioxo-4-aza-tricyclo[5.2.1.0*2,6*]dec-8-en-4-yl)-cyclohexanecarboxylic acid quinolin-8-ylamide]
